Broadly, the IC50 is the concentration at which inhibition is half-maximal. The low end stands for higher potency, the high end for lower potency.

3 compounds from the kinase profiling compilation of Christmann-Franck et al. (2016) can be followed below.

The target in experiment [1] is MAP3K9 (human) (UniProt P80192).
For experiment [2], the target named is MYLK (human) (UniProt Q15746).
Experiment [3] has as its system PAK2 (human), Q13177 [T402E].
Experiment [4] has as its target TTK (human) (UniProt P33981).
Experiment [5] addresses ABL1 (human) (UniProt P00519). Description: KINOMEscan competition binding. To be noted: compound 10.0 µM.
For experiment [6], the system named is ABL1 (human), P00519 [F317I]. Description: KINOMEscan competition binding. To be noted: compound 10.0 µM.
Experiment [7] concerns ABL1 (human), P00519 [F317L]. Description: KINOMEscan competition binding. Particulars: compound 10.0 µM.
In experiment [8] the test system is ABL1 (human), P00519 [H396P]. Description: KINOMEscan competition binding. To be noted: compound 10.0 µM.
The target in experiment [9] is MYLK3 (human) (UniProt Q32MK0).
Experiment [10] deals with ABL1 (human), P00519 [E255K]. Description: KINOMEscan competition binding. Particulars: compound 10.0 µM.
Experiment [11] has as its system ABL1 (human), P00519 [Y253F]. Description: KINOMEscan competition binding. To be noted: compound 10.0 µM.
Experiment [12] concerns EGFR (human), P00533 [746-750 del]. Description: KINOMEscan competition binding. Particulars: compound 10.0 µM.
In experiment [13] the test system is EGFR (human), P00533 [G719C]. Description: KINOMEscan competition binding. Particulars: compound 10.0 µM.
The test system of experiment [14] is EGFR (human), P00533 [G719S]. Description: KINOMEscan competition binding. Particulars: compound 10.0 µM.
The subject of experiment [15] is EGFR (human), P00533 [L861Q]. Description: KINOMEscan competition binding. Particulars: compound 10.0 µM.
In experiment [16] the test system is EGFR (human), P00533 [P753S; 747-752 del]. Description: KINOMEscan competition binding. To be noted: compound 10.0 µM.
For experiment [17], the system named is KIT (human), P10721 [V559D/V654A]. Description: KINOMEscan competition binding. To be noted: compound 10.0 µM.
The target in experiment [18] is MARK2 (human) (UniProt Q7KZI7). Description: KINOMEscan competition binding. Particulars: compound 10.0 µM.
The target in experiment [19] is PIK3CA (human) (UniProt P42336). Description: KINOMEscan competition binding. To be noted: compound 10.0 µM.
For experiment [20], the system named is PIK3CA (human), P42336 [H1047Y]. Description: KINOMEscan competition binding. To be noted: compound 10.0 µM.
For experiment [21], the target named is PIK3CG (human) (UniProt P48736). Description: KINOMEscan competition binding. Particulars: compound 10.0 µM.
The target of experiment [22] is MTOR (human) (UniProt P42345).

Chain of PAK2 (human), Q13177 [T402E] (Q13177 whole entry T402E, looked up): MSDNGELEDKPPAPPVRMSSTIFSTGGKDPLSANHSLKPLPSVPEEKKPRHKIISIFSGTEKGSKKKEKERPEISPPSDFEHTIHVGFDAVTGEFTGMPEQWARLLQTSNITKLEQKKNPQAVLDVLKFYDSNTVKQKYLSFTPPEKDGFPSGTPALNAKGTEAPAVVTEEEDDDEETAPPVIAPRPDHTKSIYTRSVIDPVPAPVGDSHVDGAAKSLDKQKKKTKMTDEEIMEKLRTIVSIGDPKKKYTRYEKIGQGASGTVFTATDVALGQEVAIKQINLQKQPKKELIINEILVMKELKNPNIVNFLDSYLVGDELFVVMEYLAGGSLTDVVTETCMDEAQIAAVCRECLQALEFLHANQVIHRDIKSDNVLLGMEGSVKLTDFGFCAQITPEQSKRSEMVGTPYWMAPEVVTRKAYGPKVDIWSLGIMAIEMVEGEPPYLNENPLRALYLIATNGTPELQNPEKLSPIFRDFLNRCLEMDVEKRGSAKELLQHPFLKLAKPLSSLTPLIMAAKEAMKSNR
Chain of MAP3K9 (human) (P80192 whole entry, looked up): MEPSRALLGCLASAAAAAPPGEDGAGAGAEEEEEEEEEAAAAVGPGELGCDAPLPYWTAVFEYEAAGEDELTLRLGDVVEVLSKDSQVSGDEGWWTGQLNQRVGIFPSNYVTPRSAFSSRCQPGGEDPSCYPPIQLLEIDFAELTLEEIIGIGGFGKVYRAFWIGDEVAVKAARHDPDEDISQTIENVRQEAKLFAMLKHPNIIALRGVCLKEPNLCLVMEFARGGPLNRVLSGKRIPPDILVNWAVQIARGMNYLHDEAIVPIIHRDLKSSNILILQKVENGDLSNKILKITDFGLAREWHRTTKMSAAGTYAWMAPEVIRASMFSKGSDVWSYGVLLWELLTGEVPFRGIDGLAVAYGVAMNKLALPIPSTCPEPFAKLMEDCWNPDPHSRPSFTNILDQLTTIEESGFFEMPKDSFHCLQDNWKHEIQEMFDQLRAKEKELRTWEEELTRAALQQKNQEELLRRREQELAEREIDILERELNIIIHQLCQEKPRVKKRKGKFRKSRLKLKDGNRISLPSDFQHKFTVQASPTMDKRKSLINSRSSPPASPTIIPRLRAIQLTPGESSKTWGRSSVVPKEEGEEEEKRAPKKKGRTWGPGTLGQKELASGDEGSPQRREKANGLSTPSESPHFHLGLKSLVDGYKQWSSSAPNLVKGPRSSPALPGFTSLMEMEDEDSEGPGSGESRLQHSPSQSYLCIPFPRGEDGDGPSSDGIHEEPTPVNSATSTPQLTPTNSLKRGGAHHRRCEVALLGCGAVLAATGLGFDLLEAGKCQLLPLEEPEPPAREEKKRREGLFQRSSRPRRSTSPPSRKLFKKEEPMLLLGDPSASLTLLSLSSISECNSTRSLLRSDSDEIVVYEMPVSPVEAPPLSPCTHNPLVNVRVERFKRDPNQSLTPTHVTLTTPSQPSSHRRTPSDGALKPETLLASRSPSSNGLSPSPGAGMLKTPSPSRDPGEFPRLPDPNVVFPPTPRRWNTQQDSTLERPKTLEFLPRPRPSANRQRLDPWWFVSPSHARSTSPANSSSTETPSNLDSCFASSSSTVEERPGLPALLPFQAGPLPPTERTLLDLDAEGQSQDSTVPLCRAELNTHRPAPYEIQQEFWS
Chain of MYLK (human) (Q15746 whole entry, looked up): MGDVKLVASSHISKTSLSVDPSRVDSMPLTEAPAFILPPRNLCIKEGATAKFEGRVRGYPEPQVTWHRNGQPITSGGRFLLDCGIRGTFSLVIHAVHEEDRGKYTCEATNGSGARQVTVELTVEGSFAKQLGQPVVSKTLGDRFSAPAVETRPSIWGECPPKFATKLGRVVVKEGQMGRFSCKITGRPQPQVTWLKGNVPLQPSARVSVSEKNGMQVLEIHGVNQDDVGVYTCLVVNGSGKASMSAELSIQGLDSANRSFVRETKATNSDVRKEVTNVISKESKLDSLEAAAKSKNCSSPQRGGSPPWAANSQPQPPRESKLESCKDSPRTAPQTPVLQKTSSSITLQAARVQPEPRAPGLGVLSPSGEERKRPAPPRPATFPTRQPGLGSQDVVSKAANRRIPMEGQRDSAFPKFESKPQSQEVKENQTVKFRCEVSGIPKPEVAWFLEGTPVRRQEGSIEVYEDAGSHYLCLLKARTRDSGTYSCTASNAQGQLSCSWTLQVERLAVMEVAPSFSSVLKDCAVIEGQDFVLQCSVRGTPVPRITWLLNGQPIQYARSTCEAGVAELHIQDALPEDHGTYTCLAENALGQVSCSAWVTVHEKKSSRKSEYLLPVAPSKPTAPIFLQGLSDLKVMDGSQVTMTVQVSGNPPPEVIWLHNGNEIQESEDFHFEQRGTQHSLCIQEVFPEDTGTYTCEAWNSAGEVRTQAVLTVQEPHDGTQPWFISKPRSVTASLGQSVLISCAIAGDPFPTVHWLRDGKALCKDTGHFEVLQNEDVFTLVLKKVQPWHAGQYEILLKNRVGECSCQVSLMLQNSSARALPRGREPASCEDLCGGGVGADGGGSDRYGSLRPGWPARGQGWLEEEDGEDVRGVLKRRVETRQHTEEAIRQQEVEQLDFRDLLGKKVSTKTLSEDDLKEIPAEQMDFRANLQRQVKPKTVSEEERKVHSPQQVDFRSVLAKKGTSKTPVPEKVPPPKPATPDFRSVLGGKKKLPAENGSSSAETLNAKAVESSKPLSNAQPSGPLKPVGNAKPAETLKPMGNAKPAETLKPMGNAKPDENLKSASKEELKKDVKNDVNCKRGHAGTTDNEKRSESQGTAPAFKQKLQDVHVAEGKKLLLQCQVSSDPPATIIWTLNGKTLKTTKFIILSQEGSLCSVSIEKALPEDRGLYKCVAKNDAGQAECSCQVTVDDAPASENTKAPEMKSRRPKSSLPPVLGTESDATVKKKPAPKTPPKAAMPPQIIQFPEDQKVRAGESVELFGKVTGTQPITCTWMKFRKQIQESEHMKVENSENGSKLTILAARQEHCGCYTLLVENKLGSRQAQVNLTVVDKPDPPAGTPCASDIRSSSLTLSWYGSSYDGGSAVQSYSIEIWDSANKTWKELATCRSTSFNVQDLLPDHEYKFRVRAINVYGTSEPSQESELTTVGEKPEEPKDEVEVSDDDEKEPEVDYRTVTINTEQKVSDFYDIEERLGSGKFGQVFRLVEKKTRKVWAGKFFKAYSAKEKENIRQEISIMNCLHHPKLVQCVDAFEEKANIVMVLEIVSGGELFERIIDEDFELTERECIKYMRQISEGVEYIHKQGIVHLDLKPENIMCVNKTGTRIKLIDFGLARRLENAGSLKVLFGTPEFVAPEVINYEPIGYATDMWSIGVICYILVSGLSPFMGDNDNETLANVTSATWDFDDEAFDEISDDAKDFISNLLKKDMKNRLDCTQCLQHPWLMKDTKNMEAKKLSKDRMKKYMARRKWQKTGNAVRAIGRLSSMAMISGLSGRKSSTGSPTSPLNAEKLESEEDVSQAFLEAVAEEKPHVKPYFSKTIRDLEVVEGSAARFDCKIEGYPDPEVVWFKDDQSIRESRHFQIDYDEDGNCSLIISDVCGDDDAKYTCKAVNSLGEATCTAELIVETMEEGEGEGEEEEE
Chain of TTK (human) (P33981 whole entry, looked up): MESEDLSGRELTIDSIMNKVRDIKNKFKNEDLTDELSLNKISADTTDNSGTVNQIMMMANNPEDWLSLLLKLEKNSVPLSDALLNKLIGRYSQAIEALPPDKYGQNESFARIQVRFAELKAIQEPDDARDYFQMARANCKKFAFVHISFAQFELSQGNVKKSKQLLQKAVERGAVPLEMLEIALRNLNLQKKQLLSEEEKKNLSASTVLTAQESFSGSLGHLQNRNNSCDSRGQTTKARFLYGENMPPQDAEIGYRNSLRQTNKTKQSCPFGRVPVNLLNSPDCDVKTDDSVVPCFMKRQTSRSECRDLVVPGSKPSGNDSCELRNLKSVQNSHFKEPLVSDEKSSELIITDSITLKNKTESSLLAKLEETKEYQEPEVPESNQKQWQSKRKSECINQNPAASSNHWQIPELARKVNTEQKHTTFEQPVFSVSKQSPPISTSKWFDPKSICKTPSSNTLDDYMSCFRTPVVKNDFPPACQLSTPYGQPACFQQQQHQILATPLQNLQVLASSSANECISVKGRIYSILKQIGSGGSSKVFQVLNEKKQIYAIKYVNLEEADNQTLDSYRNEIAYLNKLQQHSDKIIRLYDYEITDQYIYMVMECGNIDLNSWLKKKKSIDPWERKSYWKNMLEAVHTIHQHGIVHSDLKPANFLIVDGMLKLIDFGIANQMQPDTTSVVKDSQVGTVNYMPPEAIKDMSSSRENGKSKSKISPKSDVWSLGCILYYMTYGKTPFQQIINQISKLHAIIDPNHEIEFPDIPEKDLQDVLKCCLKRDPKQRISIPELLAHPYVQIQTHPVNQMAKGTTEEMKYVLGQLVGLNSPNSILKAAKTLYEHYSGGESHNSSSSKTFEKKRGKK

Turning to `CCC(=O)N1CCN(c2ccc(-n3c(=O)ccc4cnc5ccc(-c6cnc7ccccc7c6)cc5c43)cc2C(F)(F)F)CC1`, the per cent of control in [1] (compound 1.0 µM) is 92%; in [1] (compound 10.0 µM), 48%; in experiment [2] (compound 1.0 µM), 94%; in [2] (compound 10.0 µM), 83%; in experiment [3] (compound 1.0 µM), 93%; in experiment [3] (compound 10.0 µM) it was 82%. Further, the per cent of control in [4] (compound 1.0 µM) turned out to be 79%; in experiment [4] (compound 10.0 µM), 71%. Besides, the kinase still bound, per cent of control in experiment [5] came out at 60%; in experiment [6], 100%; in experiment [7], 100%; in [8], 68%.
Regarding `COc1ccc(-c2ccc3c(N4CCOCC4)nc(N4C[C@@H](C)O[C@@H](C)C4)nc3n2)cc1CO`, the per cent of control in experiment [9] (compound 1.0 µM) was 82%; in experiment [9] (compound 10.0 µM) it was 104%. Also, the kinase still bound, per cent of control amounted to 100% in experiment [10]; 100% in [11]; 100% in experiment [12]; 100% in [13]; 100% in [14]; 83% in [15]. Moreover, the kinase still bound, per cent of control amounted to 100% in experiment [16]; 100% in experiment [17]; 94% in experiment [18]; 2.5% in [19]; 3.2% in [20]; 23% in experiment [21].
As to `COC(=O)Nc1ccc(-c2nc(N3CCOCC3)c3cnn(C4CCN(C(=O)OC)CC4)c3n2)cc1`, the per cent of control in experiment [1] (compound 1.0 µM) was determined as 95%; in experiment [1] (compound 10.0 µM) it was 109%; in [2] (compound 1.0 µM), 97%; in experiment [2] (compound 10.0 µM) it was 87%; in experiment [3] (compound 1.0 µM) it was 92%; in experiment [3] (compound 10.0 µM), 91%. Further, the per cent of control in experiment [4] (compound 1.0 µM) is 91%; in experiment [4] (compound 10.0 µM) it was 93%. In addition, the kinase still bound, per cent of control in experiment [10] was found to be 100%; in [11] it was 90%; in experiment [12], 100%; in experiment [13], 100%; in [14] it was 95%; in experiment [15] it was 100%. Besides, the kinase still bound, per cent of control in experiment [16] is 86%; in experiment [17], 100%; in experiment [18] it was 100%; in experiment [19], 5.4%; in [20], 7.8%; in experiment [21], 78%. The IC50 in experiment [22] came out at 0.0158 µM.
